Legend:
[1] = test system: lambsquarters; assay: Test B pre-/postemergence herbicide test; assay type: in vivo, Chenopodium album; conditions: for Lambsquarters plant response rating: postemergence
Method in brief: (§1)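 Greenhouse pot assay with simultaneous preemergence (treated seed) and postemergence (2–18 cm seedlings) applications of surfactant-containing, non-phytotoxic solvent formulations. Response scored visually 13–15 days later on a 0–100 scale, 100 meaning complete control.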

[2] = test system: rice; assay: Test C flooded paddy test; assay type: in vivo, Oryza sativa
Method in brief: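 Postemergence sprays applied to plants 2 to 18 cm tall (1- to 4-leaf stage); paddy species grown to 2-leaf stage under flooding. After 12 to 14 days in greenhouse, visual rating versus untreated controls on 0–100 scale (0 no effect, 100 complete control).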

[3] = test system: velvetleaf; assay: Test B pre-/postemergence herbicide test; assay type: in vivo, Abutilon theophrasti; conditions: for Velvetleaf plant response rating: postemergence
Method in brief: as §1

[4] = test system: smallflower umbrella sedge; assay: Test C flooded paddy test; assay type: in vivo, Cyperus difformis
[5] = test system: Surinam grass; assay: Test B pre-/postemergence herbicide test; assay type: in vivo, Urochloa decumbens; conditions: for Surinam Grass plant response rating: postemergence
Method in brief: as §1

[6] = test system: blackgrass; assay: Test B postemergence herbicide test; assay type: in vivo, Alopecurus myosuroides; conditions: postemergence
Method in brief: (§2)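 Greenhouse test; postemergence application to plants at 1–4 leaves (2–18 cm); paddy species at 2 leaves; evaluated visually vs controls at 13–15 days; scale 0–100 (100 = complete control).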

[7] = test system: small flower umbrella sedge; assay: Test B flooded paddy test; assay type: in vivo, Cyperus difformis; conditions: 1000 g ai/ha, scale 0 to 100 (0 no effect, 100 complete control)
Method in brief: as §2

[8] = test system: barnyardgrass; assay: Test B flooded paddy test; assay type: in vivo, Echinochloa crus-galli; conditions: 1000 g ai/ha, scale 0 to 100 (0 no effect, 100 complete control)
Method in brief: as §2

[9] = test system: barnyardgrass; assay: Test B pre-/postemergence herbicide test; assay type: in vivo, Echinochloa crus-galli; conditions: for Barnyardgrass plant response rating: postemergence
Method in brief: as §1

[10] = test system: wild oat; assay: Test B postemergence herbicide test; assay type: in vivo, Avena fatua; conditions: postemergence
Method in brief: as §2

[11] = test system: corn; assay: Test B pre-/postemergence herbicide test; assay type: in vivo, Zea mays; conditions: for Corn plant response rating: postemergence
Method in brief: as §1

[12] = test system: rice; assay: Test B flooded paddy test; assay type: in vivo, Oryza sativa; conditions: 1000 g ai/ha, scale 0 to 100 (0 no effect, 100 complete control)
Method in brief: as §2

[13] = test system: giant foxtail; assay: Test B pre-/postemergence herbicide test; assay type: in vivo, Setaria faberi; conditions: for Foxtail, Giant plant response rating: postemergence
Method in brief: as §1

[14] = test system: pigweed; assay: Test B pre-/postemergence herbicide test; assay type: in vivo, Amaranthus retroflexus; conditions: for Pigweed plant response rating: postemergence
Method in brief: as §1

[15] = test system: rice; assay: Test B pre-/postemergence herbicide test; assay type: in vivo, Oryza sativa; conditions: 0 = no effect, 100 = complete control, preemergence
Method in brief: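 Species tested were Echinochloa crus-galli, Ipomoea coccinea, Xanthium strumarium and Oryza sativa, treated both before emergence and at the 1- to 4-leaf stage; rice and barnyardgrass were also tested under flooding at 2 leaves. Greenhouse incubation lasted 13–15 days before visual 0–100 scoring.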

[16] = test system: cocklebur; assay: Test B pre-/postemergence herbicide test; assay type: in vivo, Xanthium strumarium; conditions: for Cocklebur plant response rating: postemergence
Method in brief: as §1

[17] = test system: ducksalad; assay: Test C flooded paddy test; assay type: in vivo, Heteranthera limosa
[18] = test system: morningglory; assay: Test B pre-/postemergence herbicide test; assay type: in vivo, Ipomoea coccinea; conditions: for Morningglory plant response rating: postemergence
Method in brief: as §1

[19] = test system: wheat; assay: Test B postemergence herbicide test; assay type: in vivo, Triticum aestivum; set-up: key to Wheat plant response rating: 0 = no effect, 100 = complete control; conditions: postemergence
Method in brief: as §2

[20] = test system: barnyardgrass; assay: Test C flooded paddy test; assay type: in vivo, Echinochloa crus-galli
Method in brief: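 Plants were grown to the 1- to 4-leaf stage (2–18 cm) and then treated postemergence, or grown to the 2-leaf stage for the flooded paddy test. They were held in a greenhouse for 12 to 14 days and then scored by eye against controls, where 0 is no effect and 100 is complete control.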

[21] = test system: ducksalad; assay: Test B flooded paddy test; assay type: in vivo, Heteranthera limosa; conditions: 1000 g ai/ha, scale 0 to 100 (0 no effect, 100 complete control)
Method in brief: as §2

[22] = test system: large crabgrass; assay: Test B pre-/postemergence herbicide test; assay type: in vivo, Digitaria sanguinalis; conditions: for Crabgrass, Large plant response rating: postemergence
Method in brief: as §1

[23] = 125 g ai/ha, 0 = no effect, 100 = complete control, preemergence
[24] = 125 g ai/ha, visual rating, scale 0 (no effect) to 100 (complete control)
[25] = 500 g ai/ha, visual rating, 0 = no effect, 100 = complete control, preemergence
[26] = 500 g ai/ha, scale 0 to 100, 0 is no effect, 100 is complete control
[27] = 125 g ai/ha, scale 0 to 100 (0 no effect, 100 complete control)
[28] = 250 g ai/ha, scale of 0 to 100, 0 is no effect, 100 is complete control
[29] = 500 g ai/ha, visual rating after 12 to 14 days, scale 0 to 100 (0 no effect, 100 complete control)

With C#CCNC(=O)c1ccc(F)c(NC(=O)c2cc(C3(C)CC3)nn2CC)c1 [Compound 302] the “Lambsquarters plant response rating (0 to 100 scale)” value [1, 23] was 0, the “Lambsquarters plant response rating” value [1, 24] was 60 and the “Plant response rating, Lambsquarters” value [1, 25] was 100. For the same molecule, the “Lambsquarters plant response rating” value [1, 26] was 70, the “Rice plant response rating” value ([2]; 62 g ai/ha, scale 0 to 100) was 0 and the “Rice plant response rating” value [2, 27] was 0. The “Rice plant response rating” value [2, 28] was 0, the “Plant response rating, Rice” value [2, 29] was 55 and the “Velvetleaf plant response rating” value [3, 24] was 10. For the same molecule, the “Plant response rating, Velvetleaf” value [3, 25] was 80, the “Velvetleaf plant response rating” value [3, 26] was 10 and the “Sedge, Umbrella plant response rating” value ([4]; 62 g ai/ha, scale 0 to 100) was 15. For the same molecule, the “Sedge, Umbrella plant response rating” value [4, 27] was 50, the “Sedge, Umbrella plant response rating” value [4, 28] was 75 and the “Plant response rating, Sedge, Umbrella” value [4, 29] was 85. For the same molecule, the “Surinam Grass plant response rating (0 to 100 scale)” value [5, 23] was 10, the “Surinam Grass plant response rating” value [5, 24] was 0 and the “Plant response rating, Surinam Grass” value [5, 25] was 30. The “Surinam Grass plant response rating” value [5, 26] was 10, the “Blackgrass plant response rating” value [6, 24] was 10 and the “Blackgrass plant response rating” value [6, 26] was 20. The “Sedge, Umbrella plant response rating” value [7] was 80, the “Barnyardgrass plant response rating” value [8] was 70 and the “Barnyardgrass plant response rating (0 to 100 scale)” value [9, 23] was 0. The “Barnyardgrass plant response rating” value [9, 24] was 10, the “Plant response rating, Barnyardgrass” value [9, 25] was 60 and the “Barnyardgrass plant response rating” value [9, 26] was 40. The “Oat, Wild plant response rating” value [10, 24] was 0, the “Oat, Wild plant response rating” value [10, 26] was 10 and the “Corn plant response rating (0 to 100 scale)” value [11, 23] was 0. The “Corn plant response rating” value [11, 24] was 10, the “Plant response rating, Corn” value [11, 25] was 10 and the “Corn plant response rating” value [11, 26] was 50. The “Rice plant response rating” value [12] was 70, the “Foxtail, Giant plant response rating (0 to 100 scale)” value [13, 23] was 0 and the “Foxtail, Giant plant response rating” value [13, 24] was 0. For the same molecule, the “Plant response rating, Foxtail, Giant” value [13, 25] was 30, the “Foxtail, Giant plant response rating” value [13, 26] was 20 and the “Pigweed plant response rating (0 to 100 scale)” value [14, 23] was 100. The “Pigweed plant response rating” value [14, 24] was 80, the “Plant response rating, Pigweed” value [14, 25] was 100 and the “Pigweed plant response rating” value [14, 26] was 90. For the same molecule, the “Rice plant response rating (0 to 100 scale)” value ([15]; 125 g ai/ha) was 0, the “Plant response rating, Rice” value ([15]; 500 g ai/ha, visual rating) was 10 and the “Cocklebur plant response rating (0 to 100 scale)” value [16, 23] was 0. For the same molecule, the “Cocklebur plant response rating” value [16, 24] was 10, the “Plant response rating, Cocklebur” value [16, 25] was 0 and the “Cocklebur plant response rating” value [16, 26] was 10. The “Ducksalad plant response rating” value ([17]; 62 g ai/ha, scale 0 to 100) was 0, the “Ducksalad plant response rating” value [17, 27] was 25 and the “Ducksalad plant response rating” value [17, 28] was 30. The “Plant response rating, Ducksalad” value [17, 29] was 85, the “Morningglory plant response rating (0 to 100 scale)” value [18, 23] was 0 and the “Morningglory plant response rating” value [18, 24] was 30. For the same molecule, the “Plant response rating, Morningglory” value [18, 25] was 10, the “Morningglory plant response rating” value [18, 26] was 60 and the “Wheat plant response rating” value [19, 24] was 0. The “Wheat plant response rating” value [19, 26] was 10, the “Barnyardgrass plant response rating” value ([20]; 62 g ai/ha, scale 0 to 100 (0 no effect, 100 complete control)) was 0 and the “Barnyardgrass plant response rating” value [20, 27] was 0. For the same molecule, the “Barnyardgrass plant response rating” value [20, 28] was 10, the “Plant response rating, Barnyardgrass” value [20, 29] was 35 and the “Ducksalad plant response rating” value [21] was 90. For the same molecule, the “Crabgrass, Large plant response rating (0 to 100 scale)” value [22, 23] was 70, the “Crabgrass, Large plant response rating” value [22, 24] was 0 and the “Plant response rating, Crabgrass, Large” value [22, 25] was 100. For the same molecule, the “Crabgrass, Large plant response rating” value [22, 26] was 10.
